The NIST ThermoML archive (doi:10.1021/acs.jced.8b00132)
Values joined by “and” are separate entries in the source; they are usually repeats but may differ in a detail not shown here. Equal entries are not always repeated.

Conditions: Liquid, transient hot wire

O=C(C(F)(F)C(F)(F)F)C(F)(C(F)(F)F)C(F)(F)F [dodecafluoro-2-methylpentan-3-one]
Conditions | thermal conductivity
192.97 K, 9415 kPa | 0.07862 W/m/K
192.97 K, 9417 kPa | 0.07861 W/m/K
192.98 K, 6038 kPa | 0.0783 W/m/K
192.98 K, 6049 kPa | 0.07834 W/m/K
192.99 K, 167 kPa | 0.07692 W/m/K
192.99 K, 173 kPa | 0.07695 W/m/K
193 K, 151 kPa | 0.07702 W/m/K
193 K, 154 kPa | 0.07718 W/m/K
193.29 K, 67553 kPa | 0.08802 W/m/K
193.29 K, 67565 kPa | 0.0877 W/m/K
193.3 K, 61029 kPa | 0.08639 W/m/K
193.31 K, 52610 kPa | 0.086 W/m/K
193.31 K, 52615 kPa | 0.08604 W/m/K
193.31 K, 61018 kPa | 0.08674 W/m/K
193.33 K, 44206 kPa | 0.08413 W/m/K
193.33 K, 44213 kPa | 0.08424 W/m/K
193.35 K, 36147 kPa | 0.08312 W/m/K
193.35 K, 36154 kPa | 0.08322 W/m/K
193.37 K, 28301 kPa | 0.08185 W/m/K
193.37 K, 28302 kPa | 0.08165 W/m/K
193.42 K, 20237 kPa | 0.08068 W/m/K
193.43 K, 20237 kPa | 0.08099 W/m/K
193.45 K, 13265 kPa | 0.07982 W/m/K
193.45 K, 13266 kPa | 0.07945 W/m/K
193.48 K, 6427 kPa | 0.07813 W/m/K
193.48 K, 6455 kPa | 0.07812 W/m/K
193.51 K, 179 kPa | 0.07701 W/m/K
193.52 K, 180 kPa | 0.07688 W/m/K
211.41 K, 165 kPa | 0.07448 W/m/K
211.41 K, 170 kPa | 0.07442 W/m/K
211.41 K, 5799 kPa | 0.07599 W/m/K
211.41 K, 5800 kPa | 0.0759 W/m/K
211.41 K, 12664 kPa | 0.07737 W/m/K
211.41 K, 12666 kPa | 0.07746 W/m/K
211.41 K, 19434 kPa | 0.07882 W/m/K and 0.07893 W/m/K
211.43 K, 26838 kPa | 0.08023 W/m/K
211.43 K, 26842 kPa | 0.08059 W/m/K
211.43 K, 34778 kPa | 0.08175 W/m/K
211.43 K, 34786 kPa | 0.0823 W/m/K
211.76 K, 52040 kPa | 0.08466 W/m/K
211.76 K, 52042 kPa | 0.08451 W/m/K
211.77 K, 60806 kPa | 0.08612 W/m/K
211.77 K, 60808 kPa | 0.0862 W/m/K
211.77 K, 67154 kPa | 0.087 W/m/K
211.78 K, 67150 kPa | 0.08734 W/m/K
211.8 K, 12660 kPa | 0.07728 W/m/K
211.8 K, 19446 kPa | 0.07881 W/m/K
211.8 K, 19450 kPa | 0.07869 W/m/K
211.81 K, 173 kPa | 0.07406 W/m/K
211.81 K, 5801 kPa | 0.07566 W/m/K
211.81 K, 5813 kPa | 0.07576 W/m/K
211.81 K, 12660 kPa | 0.0775 W/m/K
211.81 K, 26841 kPa | 0.07965 W/m/K
211.81 K, 26845 kPa | 0.08017 W/m/K
211.81 K, 34792 kPa | 0.08166 W/m/K
211.81 K, 34801 kPa | 0.08137 W/m/K
211.81 K, 43011 kPa | 0.08307 W/m/K
211.81 K, 43012 kPa | 0.0834 W/m/K
211.82 K, 163 kPa | 0.07354 W/m/K
212.17 K, 60783 kPa | 0.08526 W/m/K
212.17 K, 60795 kPa | 0.08562 W/m/K
212.17 K, 67130 kPa | 0.08706 W/m/K
212.18 K, 52048 kPa | 0.08429 W/m/K
212.18 K, 52063 kPa | 0.08422 W/m/K
212.18 K, 67138 kPa | 0.08699 W/m/K
212.23 K, 26847 kPa | 0.0801 W/m/K
212.23 K, 34793 kPa | 0.08106 W/m/K
212.23 K, 34794 kPa | 0.08097 W/m/K
212.23 K, 43021 kPa | 0.08227 W/m/K
212.24 K, 12668 kPa | 0.07725 W/m/K
212.24 K, 19437 kPa | 0.07855 W/m/K
212.24 K, 26845 kPa | 0.07971 W/m/K
212.25 K, 12667 kPa | 0.07727 W/m/K
212.26 K, 5796 kPa | 0.07549 W/m/K
212.27 K, 173 kPa | 0.0737 W/m/K
212.27 K, 5805 kPa | 0.07454 W/m/K
212.28 K, 168 kPa | 0.07378 W/m/K
212.61 K, 67097 kPa | 0.08653 W/m/K
212.61 K, 67117 kPa | 0.08664 W/m/K
212.62 K, 52074 kPa | 0.0837 W/m/K
212.62 K, 60785 kPa | 0.08529 W/m/K
212.62 K, 60787 kPa | 0.08543 W/m/K
212.63 K, 52063 kPa | 0.08349 W/m/K
212.68 K, 43009 kPa | 0.08278 W/m/K
